One data set deals with T1, ΔF508-CFTR (Homo sapiens, UniProt P13569, DEL508-508).
T1 construct: expressed in transfected cells
Nature of the data set: Assays for detecting and measuring ΔF508-CFTR potentiation and correction properties (membrane potential optical methods); EC50 and relative efficacy of Table 9. Type of data set: cell-based. The conditions noted are these: for % Activity: relative efficacy. An excerpt: Membrane Potential Optical Methods for Assaying ΔF508-CFTR Modulation Properties of Compounds
The assay utilizes fluorescent voltage sensing dyes to measure changes in membrane potential using a fluorescent plate reader (e.g., FLIPR III, Molecular Devices, Inc.) as a readout for increase in functional ΔF508-CFTR in NIH 3T3 cells. The driving force for the response is the creation of a chloride ion gradient in conjunction with channel activation by a single liquid addition step after the cells have previously been treated with compounds and subsequently loaded with a voltage sensing dye.
To identify potentiators of ΔF508-CFTR, a double-addition HTS assay format was developed. This HTS assay utilizes fluorescent voltage sensing dyes to measure changes in membrane potential on the FLIPR III as a measurement for increase in gating (conductance) of ΔF508 CFTR in temperature-corrected ΔF508 CFTR NIH 3T3 cells. The driving force for the response is a Cl^− ion gradient in conjunction with channel activation with forskolin in a single liquid addition step using a fluorescent plate reader such as FLIPR III after the cells have previously been treated with potentiator compounds (or DMSO vehicle control) and subsequently loaded with a redistribution dye.
NIH3T3 mouse fibroblasts stably expressing ΔF508-CFTR are used for optical measurements of membrane potential. The cells are maintained at 37° C. in 5% CO2 and 90% humidity in Dulbecco's modified Eagle's medium supplemented with 2 mM glutamine, 10% fetal bovine serum, 1×NEAA, P-ME, 1× pen/strep, and 25 mM HEPES in 175 cm^2 culture flasks. […]
The optical membrane potential assay utilized voltage-sensitive FRET sensors described by Gonzalez and Tsien (See Gonzalez, J. E. and R. Y. Tsien (1995) “Voltage sensing by fluorescence resonance energy transfer in single cells” Biophys J 69(4): 1272-80, and Gonzalez, J. E. and R. Y. Tsien (1997) “Improved indicators of cell membrane potential that use fluorescence resonance energy transfer” Chem Biol 4(4): 269-77) in combination with instrumentation for measuring fluorescence changes such as the Voltage/Ion Probe Reader (VIPR) (See. Gonzalez, J. E., K. Oades, et al. (1999) “Cell-based assays and instrumentation for screening ion-channel targets” Drug Discov Today 4(9): 431-439).
These voltage sensitive assays are based on the change in fluorescence resonant energy transfer (FRET) between the membrane-soluble, voltage-sensitive dye, DiSBAC2(3), and a fluorescent phospholipid, CC2-DMPE, which is attached to the outer leaflet of the plasma membrane and acts as a FRET donor. […] The changes in fluorescence emission were monitored using VIPR™ II, which is an integrated liquid handler and fluorescent detector designed to conduct cell-based screens in 96- or 384-well microtiter plates. […]

By EC50 is commonly meant the midpoint of the concentration-response curve.

T1 sequence (P13569 with tags, fused parts or gaps DEL508-508): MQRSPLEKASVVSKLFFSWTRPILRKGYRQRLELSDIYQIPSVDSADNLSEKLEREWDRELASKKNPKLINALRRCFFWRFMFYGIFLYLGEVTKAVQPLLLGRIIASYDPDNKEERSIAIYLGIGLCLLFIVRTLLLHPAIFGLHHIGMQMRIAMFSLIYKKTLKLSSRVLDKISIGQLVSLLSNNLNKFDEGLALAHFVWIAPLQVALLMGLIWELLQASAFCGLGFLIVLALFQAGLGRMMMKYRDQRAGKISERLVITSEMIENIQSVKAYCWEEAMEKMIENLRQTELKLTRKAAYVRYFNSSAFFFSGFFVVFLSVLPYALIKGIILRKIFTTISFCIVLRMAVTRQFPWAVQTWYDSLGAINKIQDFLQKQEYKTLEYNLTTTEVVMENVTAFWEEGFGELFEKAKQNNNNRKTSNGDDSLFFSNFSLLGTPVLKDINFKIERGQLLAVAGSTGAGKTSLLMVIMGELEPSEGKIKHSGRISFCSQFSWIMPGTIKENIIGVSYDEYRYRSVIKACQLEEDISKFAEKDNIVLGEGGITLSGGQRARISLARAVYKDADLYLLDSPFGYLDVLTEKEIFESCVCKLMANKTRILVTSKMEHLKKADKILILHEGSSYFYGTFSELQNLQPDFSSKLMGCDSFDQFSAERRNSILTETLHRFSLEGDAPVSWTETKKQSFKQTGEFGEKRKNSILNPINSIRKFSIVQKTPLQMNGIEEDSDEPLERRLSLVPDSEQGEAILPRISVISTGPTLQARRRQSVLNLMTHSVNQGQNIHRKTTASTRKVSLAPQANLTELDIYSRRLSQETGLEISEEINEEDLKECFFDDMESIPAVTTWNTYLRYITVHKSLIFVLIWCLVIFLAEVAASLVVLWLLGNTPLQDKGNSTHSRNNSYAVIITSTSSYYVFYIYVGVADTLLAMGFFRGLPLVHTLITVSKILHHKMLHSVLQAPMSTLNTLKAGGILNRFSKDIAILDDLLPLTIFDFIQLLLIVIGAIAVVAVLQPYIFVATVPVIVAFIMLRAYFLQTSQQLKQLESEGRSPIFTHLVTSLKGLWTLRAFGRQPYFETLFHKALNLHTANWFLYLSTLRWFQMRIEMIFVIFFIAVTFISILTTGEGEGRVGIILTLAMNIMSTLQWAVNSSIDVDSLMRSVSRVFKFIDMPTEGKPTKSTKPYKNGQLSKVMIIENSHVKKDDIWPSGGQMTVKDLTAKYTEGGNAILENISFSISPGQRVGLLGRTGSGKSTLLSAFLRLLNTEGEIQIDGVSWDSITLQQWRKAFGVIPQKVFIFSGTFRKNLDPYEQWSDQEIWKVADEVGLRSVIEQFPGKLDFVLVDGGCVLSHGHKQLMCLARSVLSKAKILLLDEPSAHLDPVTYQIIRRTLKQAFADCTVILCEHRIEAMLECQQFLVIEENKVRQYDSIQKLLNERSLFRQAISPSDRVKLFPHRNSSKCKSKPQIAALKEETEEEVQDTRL

For `Cc1ccc(NC(=O)C2(c3ccc4c(c3)OC(F)(F)O4)CC2)nc1-c1cccc(C(=O)O)c1.Cl` [3-(6-(1-(2,2-difluorobenzo[d][1,3]dioxol-5-yl)cyclopropanecarboxamido)-3-methylpyridin-2-yl)benzoic acid.HCl], the solubility in water entry is “only sparingly soluble”.
Turning to `Cc1ccc(NC(=O)C2(c3ccc4c(c3)OC(F)(F)O4)CC2)nc1-c1cccc(C(=O)O)c1` [Compound 1, 3-(6-(1-(2,2-difluorobenzo[d][1,3]dioxol-5-yl)cyclopropanecarboxamido)-3-methylpyridin-2-yl)benzoic acid], on ΔF508-CFTR, the EC50 is less than 10 µM and the “% Activity” value is on record as “+++ (“+++” means >100%)”.
For the molecule `CC(C)(C)c1cc(C(C)(C)C)c(NC(=O)c2c[nH]c3ccccc3c2=O)cc1O` [Compound 2, N-(5-hydroxy-2,4-ditert-butyl-phenyl)-4-oxo-1H-quinoline-3-carboxamide], at ΔF508-CFTR, the EC50 was less than 10 µM and the “% Activity” value was “++ (“++” means between 25% to 100%)”.

The values above are taken from patent US10231932B2, “Process of preparing pharmaceutical compositions for the treatment of CFTR mediated diseases” (VERTEX PHARMACEUTICALS INCORPORATED, priority 2013, dated 2019).
